Literature values, collected in patent US20150250776A1, “COMPOSITIONS AND METHODS FOR ORAL DELIVERY OF ENCAPSULATED 3-AMINOPYRIDINE-2-CARBOXALDEHYDE PARTICLES” (NANOTHERAPEUTICS, INC., priority 2014, published 2015).

Columns and labels:
tumor cell lines = tumor cell lines compared with a fibroblast cell line
[1] = test system: cell lines selected for resistance to hydroxyurea

Nc1cccnc1C=O [3-AP, 3-aminopyridine-2-carboxaldehyde]
solubility in DMSO (DMSO): soluble | solubility in aqueous solutions (aqueous solutions): poor solubility | cytotoxic effects, tumor versus fibroblast cell line (tumor cell lines): preferential cytotoxic effects | activity in hydroxyurea-resistant cell lines [1]: active
